Data: ChEMBL document CHEMBL4706476, “Novel Tetrahydropyrido[4,3-d]pyrimidines as Potent Inhibitors of Chaperone Heat Shock Protein 90” (J Med Chem, 2016)
In brackets after ≈: the same amount, converted by molar mass. Values belong to the compound of their own block, whether it stands above or below them.

What was measured:
CYP2D6 = CYP2D6 (Homo sapiens, UniProt P10635); test: Inhibition of CYP2D6 in human liver microsomes at 10 uM using dextromethorphan as substrate preincubated for 5 mins followed by NADPH addition and measured after 20 mins by LC-MS/MS analysis relative to control; assay type: ADME; details: probe dextromethorphan, time 25 min
CYP2D6, sequence (P10635 whole entry): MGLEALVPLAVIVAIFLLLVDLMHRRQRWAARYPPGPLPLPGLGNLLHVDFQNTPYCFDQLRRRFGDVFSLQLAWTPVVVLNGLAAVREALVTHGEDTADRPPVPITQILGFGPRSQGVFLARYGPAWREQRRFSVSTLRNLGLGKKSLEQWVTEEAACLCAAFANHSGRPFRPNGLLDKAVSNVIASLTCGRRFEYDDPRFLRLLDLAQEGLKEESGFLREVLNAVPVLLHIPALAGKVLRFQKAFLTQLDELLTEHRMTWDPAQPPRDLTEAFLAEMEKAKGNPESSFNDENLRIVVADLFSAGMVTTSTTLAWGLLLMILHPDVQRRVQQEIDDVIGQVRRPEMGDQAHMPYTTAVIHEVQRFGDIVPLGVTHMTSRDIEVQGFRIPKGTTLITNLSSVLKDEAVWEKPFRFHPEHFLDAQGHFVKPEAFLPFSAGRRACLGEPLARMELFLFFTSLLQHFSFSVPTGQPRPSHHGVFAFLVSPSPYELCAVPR

CYP1A2 = CYP1A2 (Homo sapiens, UniProt P05177); test: Inhibition of CYP1A2 in human liver microsomes at 10 uM using phenacetin as substrate preincubated for 5 mins followed by NADPH addition and measured after 20 mins by LC-MS/MS analysis relative to control; assay type: ADME; details: probe phenacetin, time 25 min
CYP1A2, sequence (P05177 whole entry): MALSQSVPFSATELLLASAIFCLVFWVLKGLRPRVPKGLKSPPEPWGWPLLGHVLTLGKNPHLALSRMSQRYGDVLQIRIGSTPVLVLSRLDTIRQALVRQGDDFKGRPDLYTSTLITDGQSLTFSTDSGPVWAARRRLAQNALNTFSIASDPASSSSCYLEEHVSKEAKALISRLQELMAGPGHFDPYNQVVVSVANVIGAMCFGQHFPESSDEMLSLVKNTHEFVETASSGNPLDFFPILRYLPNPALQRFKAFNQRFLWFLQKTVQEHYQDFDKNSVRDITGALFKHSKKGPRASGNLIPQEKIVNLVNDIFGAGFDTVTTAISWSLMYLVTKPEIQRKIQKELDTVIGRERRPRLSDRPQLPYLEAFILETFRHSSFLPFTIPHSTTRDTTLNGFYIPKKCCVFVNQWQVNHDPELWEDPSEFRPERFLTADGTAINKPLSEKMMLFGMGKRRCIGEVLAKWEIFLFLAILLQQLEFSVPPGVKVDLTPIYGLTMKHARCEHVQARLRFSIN

[1] = Distribution coefficient, logD of compound at pH 7.4; assay type: physicochemical; details: octanol/water
[2] = target: Heat shock protein HSP 90-alpha (Homo sapiens, UniProt P07900); test: Displacement of FITC-geldanamycin from N-terminal HSP90alpha (unknown origin) after 30 mins by fluorescence polarization competitive binding assay
[3] = Permeability of the compound at pH 7.4 by PAMPA; assay type: ADME; details: read-out: permeability
[4] = Intrinsic aqueous solubility of the compound; assay type: physicochemical
Endoplasmin = Endoplasmin (Homo sapiens, UniProt P14625); test: Displacement of FITC-geldanamycin from N-terminal GRP94 (unknown origin) after 30 mins by fluorescence polarization competitive binding assay
Endoplasmin, sequence (P14625 whole entry): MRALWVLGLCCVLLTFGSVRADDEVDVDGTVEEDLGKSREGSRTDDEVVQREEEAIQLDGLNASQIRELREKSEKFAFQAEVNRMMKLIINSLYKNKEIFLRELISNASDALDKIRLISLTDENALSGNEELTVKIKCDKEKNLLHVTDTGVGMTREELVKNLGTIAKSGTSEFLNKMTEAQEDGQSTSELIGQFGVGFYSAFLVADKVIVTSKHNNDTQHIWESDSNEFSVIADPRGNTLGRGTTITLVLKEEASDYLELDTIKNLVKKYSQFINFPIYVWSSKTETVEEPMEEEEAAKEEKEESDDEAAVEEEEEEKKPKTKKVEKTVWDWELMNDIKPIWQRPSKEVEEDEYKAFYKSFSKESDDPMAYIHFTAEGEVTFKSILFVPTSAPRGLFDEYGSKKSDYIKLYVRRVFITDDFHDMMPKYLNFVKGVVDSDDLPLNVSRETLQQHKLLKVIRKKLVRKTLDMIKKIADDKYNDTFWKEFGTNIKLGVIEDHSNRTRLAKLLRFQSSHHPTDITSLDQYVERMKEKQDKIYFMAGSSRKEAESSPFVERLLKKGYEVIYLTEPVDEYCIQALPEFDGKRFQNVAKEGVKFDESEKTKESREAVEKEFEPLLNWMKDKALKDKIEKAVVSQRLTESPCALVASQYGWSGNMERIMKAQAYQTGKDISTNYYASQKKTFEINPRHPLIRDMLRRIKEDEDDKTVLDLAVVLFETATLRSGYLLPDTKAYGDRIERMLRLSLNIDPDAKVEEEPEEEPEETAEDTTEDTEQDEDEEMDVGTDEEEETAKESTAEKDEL

[5] = Selectivity ratio of IC50 for inhibition of FITC-geldanamycin binding to N-terminal GRP94 (unknown origin) to IC50 for inhibition of FITC-geldanamycin binding to N-terminal HSP90alpha (unknown origin)
MDA-MB-231 = test: Antiproliferative activity against human MDA-MB-231 assessed as reduction in cell viability incubated for 72 hrs by MTT assay; assay type: functional, cell-based; details: MDA-MB-231, 72 h
MDA-MB-468 = test: Antiproliferative activity against human MDA-MB-468 assessed as reduction in cell viability incubated for 72 hrs by MTT assay; assay type: functional, cell-based; details: MDA-MB-468, 72 h
SK-BR-3 = test: Antiproliferative activity against human SK-BR-3 assessed as reduction in cell viability incubated for 72 hrs by MTT assay; assay type: functional, cell-based; details: SK-BR-3, 72 h
T47D = test: Antiproliferative activity against human T47D assessed as reduction in cell viability incubated for 72 hrs by MTT assay; assay type: functional, cell-based
BT-474 = test: Antiproliferative activity against human BT-474 assessed as reduction in cell viability incubated for 72 hrs by MTT assay; assay type: functional, cell-based; details: BT-474, 72 h
U2OS = test: Antiproliferative activity against human U2OS assessed as reduction in cell viability incubated for 72 hrs by MTT assay; assay type: functional, cell-based
MKN-28 = test: Antiproliferative activity against human MKN-28 assessed as reduction in cell viability incubated for 72 hrs by MTT assay; assay type: functional, cell-based; details: MKN-28, 72 h
A549 = test: Antiproliferative activity against human A549 assessed as reduction in cell viability incubated for 72 hrs by MTT assay; assay type: functional, cell-based; details: A549, 72 h
HepG2 = test: Antiproliferative activity against human HepG2 assessed as reduction in cell viability incubated for 72 hrs by MTT assay; assay type: functional, cell-based; details: HepG2, 72 h
K562 = test: Antiproliferative activity against human K562 assessed as reduction in cell viability incubated for 72 hrs by MTT assay; assay type: functional, cell-based; details: K562, 72 h
MV4-11 = test: Antiproliferative activity against human MV4-11 assessed as reduction in cell viability incubated for 72 hrs by MTT assay; assay type: functional, cell-based; details: MV4-11, 72 h
L02 = test: Cytotoxicity against human L02 cells assessed as reduction in cell viability incubated for 72 hrs by MTT assay; assay type: cell-based; details: L02, 72 h
[6] = target: T1, Heat shock protein HSP90 (Homo sapiens) (UniProt P07900+P08238); test: Inhibition of HSP90 in human HCT-116 cells assessed as reduction in AKT protein expression after 24 hrs by Western blot analysis; assay type: cell-based; details: dose 0.01-3 µM
[7] = target: T1, Heat shock protein HSP90 (Homo sapiens); test: Inhibition of HSP90 in human HCT-116 cells assessed as reduction in Erk protein expression after 24 hrs by Western blot analysis; assay type: cell-based; details: dose 0.01-3 µM
[8] = target: T1, Heat shock protein HSP90 (Homo sapiens); test: Inhibition of HSP90 in human HCT-116 cells assessed as reduction in phosphorylated Erk after 24 hrs by Western blot analysis; assay type: cell-based; details: dose 0.01-3 µM
[9] = target: T1, Heat shock protein HSP90 (Homo sapiens); test: Inhibition of HSP90 in human HCT-116 cells assessed as induction of HSP70 expression after 24 hrs by Western blot analysis; assay type: cell-based; details: dose 0.01-3 µM
[10] = Tmax in rat at 50 mg/kg, po measured upto 24 hrs by LC-MS/MS analysis; assay type: ADME, organism-based; details: in vivo
[11] = Cmax in rat at 50 mg/kg, po measured upto 24 hrs by LC-MS/MS analysis; assay type: ADME, organism-based; design: route oral, dose 50 mg/kg, time <=24; details: in vivo
[12] = Half life in human liver microsomes at 1 uM preincubated for 5 mins followed by NADPH addition and measured up to 120 mins by LC-MS/MS analysis; assay type: ADME, Microsome; details: 2 h, time <=125 min
[13] = Intrinsic clearance in human liver microsomes at 1 uM preincubated for 5 mins followed by NADPH addition and measured up to 120 mins by LC-MS/MS analysis; assay type: ADME, Microsome; details: 2 h, time <=125 min
[14] = Metabolic stability in human liver microsomes assessed as parent compound remaining at 1 uM preincubated for 5 mins followed by NADPH addition and measured up to 120 mins by LC-MS/MS analysis; assay type: ADME, Microsome; details: 2 h, time <=125 min
[15] = Half-life in rat at 50 mg/kg, po measured upto 24 hrs by LC-MS/MS analysis; assay type: ADME, organism-based; details: in vivo
[16] = Half-life in rat at 10 mg/kg, iv measured upto 24 hrs by LC-MS/MS analysis; assay type: ADME, organism-based; details: in vivo
[17] = Apparent clearance during terminal phase in rat at 50 mg/kg, po measured upto 24 hrs by LC-MS/MS analysis; assay type: ADME, organism-based; details: in vivo, read-out: CLz/F (converted)
[18] = Apparent clearance during terminal phase in rat at 10 mg/kg, iv measured upto 24 hrs by LC-MS/MS analysis; assay type: ADME, organism-based; details: in vivo
[19] = AUC (0 to t) in rat at 50 mg/kg, po measured upto 24 hrs by LC-MS/MS analysis; assay type: ADME, organism-based; design: route oral, dose 50 mg/kg, time <=24; details: in vivo
[20] = AUC (0 to t) in rat at 10 mg/kg, iv measured upto 24 hrs by LC-MS/MS analysis; assay type: ADME, organism-based; design: route intravenous, dose 10 mg/kg, time <=24; details: in vivo
[21] = Oral bioavailability in rat at 50 mg/kg measured upto 24 hrs by LC-MS/MS analysis; assay type: ADME, organism-based; details: in vivo
[22] = Apparent volume of distribution in rat at 50 mg/kg, po measured upto 24 hrs by LC-MS/MS analysis; assay type: ADME, organism-based; details: in vivo
[23] = Apparent volume of distribution in rat at 10 mg/kg, iv measured upto 24 hrs by LC-MS/MS analysis; assay type: ADME, organism-based; details: in vivo, read-out: Vz
HCT-116 [24] = test: cells; details: Homo sapiens, HCT-116, 72 h
Description: Antiproliferative activity against human HCT-116 cells assessed as reduction in cell viability incubated for 72 hrs by MTT assay

MCF7 = test: cells; details: Homo sapiens, MCF7, 72 h
HCT-116 [25] = test: Antitumor activity against human HCT-116 cells xenografted in nude mouse assessed as reduction in relative tumor volume by measuring T/C ratio at 40 mg/kg, ip administered every other day for 16 days and monitored every 3 days; assay type: functional; details: time 16 day
HCT-116 [26] = test: Antitumor activity against human HCT-116 cells xenografted in nude mouse assessed as reduction in relative tumor volume by measuring T/C ratio at 60 mg/kg, ip administered every other day for 16 days and monitored every 3 days; assay type: functional; details: time 16 day
[27] = Toxicity in nude mouse xenografted with human HCT-116 cells assessed as change in body weight at 40 to 60 mg/kg, ip administered every other day for 16 days and monitored every 3 days; details: in vivo, 384 h

- inhibition at 20 min, 10 µM (CYP2D6): 89%
SMILES: C=C[C@H]1C[N@@]2CC[C@H]1C[C@@H]2[C@@H](O)c1ccnc2ccc(OC)cc12 [QUINIDINE]

- inhibition at 20 min, 10 µM (CYP1A2): 76%
SMILES: O=c1cc(-c2ccccc2)oc2c1ccc1ccccc12 [ALPHA-NAPHTHOFLAVONE]

SMILES: COCCOc1ncc2c(n1)CCN(C(=O)c1cc(C(C)C)c(O)cc1O)C2
- logD [1]: 2.14
- IC50 [2]: 19 nM
- Papp [3]: 55.5 ×10⁻⁶ cm/s
- solubility [4]: 140 µg/mL (≈ 361 µM)
- IC50 (Endoplasmin): 198 nM
- Ratio IC50 [5]: 10.4
- IC50 (MDA-MB-231): 129 nM
- IC50 (MDA-MB-468): 172 nM
- IC50 (SK-BR-3): 175 nM
- IC50 (T47D): 183 nM
- IC50 (BT-474): 144 nM
- IC50 (U2OS): 107 nM
- IC50 (MKN-28): 325 nM
- IC50 (A549): 168 nM
- IC50 (HepG2): 119 nM
- IC50 (K562): 109 nM
- IC50 (MV4-11): 31 nM
- IC50 (L02): 27600 nM
- inhibition [6]: Dose-dependent effect
- inhibition [7]: Dose-dependent effect
- inhibition [8]: Dose-dependent effect
- inhibition [9]: Dose-dependent effect
- Tmax [10]: 0.5 h
- Cmax [11]: 40.7 ng/mL
- t1/2 [12]: 3.23 h
- CLint [13]: 4.88 mL/min/kg
- Stabilty [14]: 81.5%
- half-life [15]: 7.4 h
- half-life [16]: 4.16 h
- CL/F [17]: 3320 mL/min/kg
- CLz/F [18]: 235.3 mL/min/kg
- AUC(0-t) at 24 h [19]: 265 ng·h/mL
- AUC(0-t) at 24 h [20]: 757 ng·h/mL
- bioavailability [21]: 7%
- Vz [22]: 2072.05 L/kg
- Vd [23]: 86.6 L/kg
- IC50 (HCT-116 [24]): 170 nM
- IC50 (MCF7): 120 nM

SMILES: CCNc1nc(OCCOC)nc2c1CN(C(=O)c1cc(C(C)C)c(O)cc1O)CC2.Cl
- T/C (HCT-116 [25]): 45%
- T/C (HCT-116 [26]): 23%
- Vz [22]: 1620.19 L/kg
- Vd [23]: 29.6 L/kg
- Activity [27]: Non-Toxic
